Assay results reported in PubChem BioAssay (NCI).
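A five-concentration, 48-hour dose response in 96-well plates underlies each endpoint, interpolated linearly between surrounding concentrations. Here, GI50 denotes the concentration required for 50% inhibition of growth. Definition used: TGI = concentration required for complete inhibition of growth.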

What was measured:
Assay in all cases: NCI tumour cell line growth inhibition, 48 h
OVCAR-8 ovarian = test system: OVCAR-8 ovarian
IGROV1 ovarian = test system: IGROV1 ovarian
SF-295 CNS = test system: SF-295 CNS
M14 melanoma = test system: M14 melanoma
LOX IMVI melanoma = test system: LOX IMVI melanoma
K-562 leukemia = test system: K-562 leukemia
NCI-H460 lung = test system: NCI-H460 lung
MALME-3M melanoma = test system: MALME-3M melanoma
786-0 renal = test system: 786-0 renal
T-47D breast = test system: T-47D breast
COLO 205 colon = test system: COLO 205 colon
TK-10 renal = test system: TK-10 renal
NCI-H23 lung = test system: NCI-H23 lung
CCRF-CEM leukemia = test system: CCRF-CEM leukemia
SN12C renal = test system: SN12C renal
SK-MEL-28 melanoma = test system: SK-MEL-28 melanoma
HL-60(TB) leukemia = test system: HL-60(TB) leukemia
U251 CNS = test system: U251 CNS
RPMI-8226 leukemia = test system: RPMI-8226 leukemia

Row | SMILES | TGI (OVCAR-8 ovarian) [µM] | TGI (IGROV1 ovarian) [µM] | TGI (SF-295 CNS) [µM] | TGI (M14 melanoma) [µM] | TGI (LOX IMVI melanoma) [µM] | TGI (K-562 leukemia) [µM] | TGI (NCI-H460 lung) [µM] | TGI (MALME-3M melanoma) [µM] | TGI (786-0 renal) [µM] | TGI (T-47D breast) [µM] | TGI (COLO 205 colon) [µM] | TGI (TK-10 renal) [µM] | TGI (NCI-H23 lung) [µM] | TGI (CCRF-CEM leukemia) [µM] | TGI (SN12C renal) [µM] | TGI (SK-MEL-28 melanoma) [µM] | TGI (HL-60(TB) leukemia) [µM] | TGI (U251 CNS) [µM] | TGI (RPMI-8226 leukemia) [µM] | GI50 (SN12C renal) [µM]
1 | FC(F)(F)c1ccc2nc(Sc3ccc4ccccc4c3)cnc2c1 | > 100 | > 100 | > 100 | > 100 | > 100 | > 100 | > 100 | > 100 | > 100 | > 100 | > 100 | > 100 | > 100 | > 100 | > 100 | > 100 | > 100 | > 100 |  | 
2 | C=CC[C@H](N=C(SC)SC)C(=O)N1C(=O)N(C)[C@@H](C)[C@H]1c1ccccc1 | > 100 |  | > 100 | > 100 | > 100 | > 100 | > 100 | > 100 | > 100 | > 100 | > 100 | > 100 | > 100 | > 100 | > 100 | > 100 | > 100 | > 100 |  | 
3 | Cc1cc2ccc(N)nc2[nH]c1=O | > 100 | > 100 | > 100 | > 100 |  |  | > 100 | > 100 | > 100 | > 100 | > 100 | > 100 | > 100 |  | > 100 |  | > 100 | > 100 | > 100 | 
4 | CN1CCC2(CC1)C(=NC1CCCCC1)NC(=O)N2c1ccccc1 | > 100 | > 100 | > 100 | > 100 |  |  | > 100 | > 100 | > 100 | > 100 | > 100 | > 100 | > 100 | > 100 | > 100 | > 100 | > 100 | > 100 | > 100 | 
5 | CC(C)(C)C1=C(Br)C(OC(=O)C(F)(F)F)(C(C)(C)C)OP1(=O)c1ccccc1 (centres undefined) | > 100 | > 100 | > 100 | > 100 | > 100 | > 100 | > 100 | > 100 | > 100 | > 100 | 34 | > 100 | > 100 |  | > 100 | > 100 | > 100 | > 100 |  | 
6 | CN(C)CCCNC(=O)c1cn2c(ccc3sc4ccccc4c(=O)c32)n1 | 10.1 | 27.4 | 17.4 | 28.1 |  |  | 2.73 | 24.4 | 8.08 | 45.3 | 7.95 | 30.9 | 28.4 | > 20.1 | 9.57 | 19.6 | 22.2 | 3.22 | 5.36 | 
7 | CCOc1cc2c(cc1O)C(N)C[C@@H]1[C@@H]2CC[C@]2(C)[C@@H](O)CC[C@@H]12 (some centres undefined) | > 100 | > 100 | > 100 | 98.4 | > 100 | 73.2 | > 100 |  | > 100 | > 100 | > 100 | > 100 | > 100 | 71.6 | > 100 | > 100 | 46.5 | > 100 |  | 58.6
8 | O=C(Nc1ccc(Cl)cc1)c1cc(S(=O)(=O)Nc2n[nH]c(=O)n2-c2ccccc2)c(S)cc1Cl | > 100 | > 100 | > 100 | > 100 | > 100 |  | > 100 | > 100 | > 100 | > 100 | > 100 |  | > 100 | > 100 | > 100 | > 100 | > 100 | > 100 | > 100 | 
9 | O=C(N/N=C\c1ccc([N+](=O)[O-])s1)c1ccncc1 | 49.2 | 26 | 44.5 | 25.2 |  |  | 33.1 | 23.3 | 48.8 | 48.4 | 9.22 | > 51.7 | 38.4 | > 29.1 | 26.8 | > 64.9 | > 22.7 | > 63.8 | > 41.3 | 
10 | Cn1cc(NC(=O)Nc2cc(C(=O)Nc3cc(C(=O)Nc4cc(S(=O)(=O)O)c5cc(S(=O)(=O)O)cc(S(=O)(=O)O)c5c4)n(C)c3)n(C)c2)cc1C(=O)Nc1cc(C(=O)Nc2cc(S(=O)(=O)O)c3cc(S(=O)(=O)O)cc(S(=O)(=O)O)c3c2)n(C)c1 | > 100 | > 100 | > 100 | > 100 |  | > 100 | > 100 | > 100 | > 100 | > 100 | > 100 | > 100 | > 100 | > 100 | > 100 | > 100 | > 100 | > 100 | > 100 | 
11 | Cc1cc(=O)oc2c(CNC(CC(C)C)C(=O)O)c(O)ccc12 (centres undefined) | > 100 | > 100 | > 100 | > 100 | > 100 | > 100 | > 100 | > 100 | > 100 | > 100 | > 100 | > 100 | > 100 |  | > 100 | > 100 | > 100 | > 100 | > 100 | 
12 | C=C1CC2[C@H](C)C(=O)CCC2(C)C2=C1C1CCC(C(C)CCC(=C)C(C)C(=O)O)C1(C)CC2=O (some centres undefined) | > 100 | > 100 | > 100 | > 100 | 33.8 | 28.7 | > 100 | > 100 | 40.1 | > 100 | > 100 | > 100 | > 100 | 30.3 | > 100 | > 100 | 31.4 | > 100 |  | 
13 | CCOC(=O)C(C/C=C/CO)N(C)C(=O)OC(C)(C)C (centres undefined) | > 100 | > 100 | > 100 | > 100 | > 100 | > 100 | > 100 |  | > 100 | > 100 | > 100 | > 100 | > 100 | > 100 | > 100 | > 100 | > 100 | > 100 | > 100 | 
14 | COc1ccc(CNc2nc3ccccc3nc2C(=O)O)cc1 | > 100 | > 100 | > 100 | > 100 | > 100 | > 100 | > 100 |  | > 100 | > 100 | > 100 | > 100 | > 100 | > 100 | > 100 | > 100 | > 100 | > 100 | 68.2 | 
15 | CCNC(=S)N/N=C(\C)c1cccc(C)n1 | > 100 | > 100 | > 100 | 26 | > 100 | > 100 | 26.4 | > 100 | > 100 | > 100 | > 100 | > 100 | > 100 | > 100 | > 100 | > 100 | 53.6 | 83.2 |  | 
16 | Cc1ccc(NC(=O)CC(=O)n2nc(C)c(N=Nc3cccc(C)c3)c2C)cc1 | > 100 | > 100 | > 100 | > 100 | > 100 |  | > 100 | > 100 | > 100 | > 100 | > 100 | > 100 | > 100 | > 100 | > 100 | > 100 | > 100 | > 100 | > 100 | 
17 | CCCCCCCCCCCCO[P+](=O)OCCCCCCCCCCCC | > 100 | > 100 | > 100 | > 100 |  | > 100 | > 100 | > 100 | > 100 | > 100 | > 100 | 99.2 | > 100 | > 100 | > 100 | > 100 | > 100 | > 100 | > 100 | 
18 | CC1C2(C)OCC(C#N)(C(=N)O2)C1(C#N)C#N (centres undefined) | 84.2 | > 100 | > 100 | 39.2 | 40.4 | > 100 | 42.2 | 51.8 | 55.3 | 30.2 | 27.8 | > 100 | 86.9 | > 100 | 29.1 | 97.6 | 38.2 | 40.4 |  | 
19 | O=S(=O)(O)c1ccc2c(N=Nc3ccc(Sc4ccc(N=Nc5c(O)ccc6cc(S(=O)(=O)O)ccc56)cc4)cc3)c(O)ccc2c1 | > 100 | > 100 | > 100 | > 100 |  | > 100 | > 100 | > 100 | > 100 | > 100 | > 100 | > 100 | > 100 | > 100 | > 100 | > 100 | > 100 | > 100 | > 100 | 
20 | CC(=O)OCC1OC(n2c(-c3ccccc3)c(N=Nc3ccc(C)cc3)c(C)c(C#N)c2=S)C(OC(C)=O)C(OC(C)=O)C1OC(C)=O (centres undefined) |  |  | 97.2 | 16.8 | 64.1 | > 100 | > 100 |  | 12.5 | > 100 | > 100 | 47.6 | 42.1 | > 100 | 28.9 | 94.4 | > 100 | 33.4 | > 100 | 
